Measured values as given in patent publication US20230121086A1, “RORgT INHIBITOR, PREPARATION METHOD THEREOF AND USE THEREOF” (SUNSHINE LAKE PHARMA CO., LTD., priority 2020, published 2023).
pIC50: −log10 of the molar value.

Each compound was assayed against T1, RORγt (Homo sapiens, UniProt P51449) (assay: Fluorescence resonance energy transfer (FRET) test, inhibitory activity of RORγt). Details: not given.
T1 construct: […]
T1 sequence (P51449 269-508 limits assumed): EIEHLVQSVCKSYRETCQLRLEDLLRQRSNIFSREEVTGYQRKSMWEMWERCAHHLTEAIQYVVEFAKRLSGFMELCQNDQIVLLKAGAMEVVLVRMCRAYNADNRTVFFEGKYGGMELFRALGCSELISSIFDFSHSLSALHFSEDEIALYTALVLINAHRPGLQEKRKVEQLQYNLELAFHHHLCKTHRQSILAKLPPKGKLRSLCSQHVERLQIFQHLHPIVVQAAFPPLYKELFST
Assay type: biochemical

Compound | pIC50
[2H]C([2H])(NC(=O)c1ccc(N2C[C@@H](Oc3ccc(OC(F)(F)F)cn3)C[C@H]2COC(F)F)cc1)c1ccc(S(=O)(=O)CC)cc1 [Example 169, N-(Dideuterium(4-(ethylsulfonyl)phenyl)methyl)-4-((2S,4S)-2-((difluoromethoxy)methyl)-4-((5-(trifluoromethoxy)pyridin-2-yl)oxy)pyrrolidin-1-yl) benzamide] | 8.22

Same assay, conditions: FRET, B-RORγt LBD / Biotin-SRC1; read-out: IC50

pIC50 | Compound
8.06 | [2H]C([2H])([2H])OC[C@@H]1C[C@H](Oc2ccc(C(F)(F)F)cc2)CN1c1ccc(C(=O)N[C@@H](CC#N)c2ccc(S(=O)(=O)CC)cc2)cc1 [Example 151, N—((S)-2-cyano-1-(4-(ethylsulfonyl)phenyl)ethyl)-4-((2S,4S)-2-((3,3,3-d3-methoxy)methyl)-4-(4-(trifluoromethyl)phenoxy)pyrrolidin-1-yl)benzamide]
7.88 | CCS(=O)(=O)c1ccc([C@H](CC#N)NC(=O)c2ccc(N3C[C@@H](Oc4ccc(-n5cccn5)cc4)C[C@H]3COC(F)F)cc2)cc1 [Example 152, 4-((2S,4S)-4-(4-(1H-pyrazol-1-yl)phenoxy)-2-((difluoromethoxy)methyl)pyrrolidin-1-yl)-N—((S)-2-cyano-1-(4-(ethylsulfonyl)phenyl)ethyl)benzamide]
8.30 | CCS(=O)(=O)c1ccc([C@H](COC(N)=O)NC(=O)c2ccc(N3C[C@@H](Oc4ccc(Cl)cn4)C[C@H]3COC(F)F)cc2)cc1 [Example 153, (R)-2-(4-((2S,4S)-4-((5-chloropyridin-2-yl)oxy)-2-((difluoromethoxy)methyl)pyrrolidin-1-yl)benzoylamino)-2-(4-(ethylsulfonyl)phenyl)ethyl carbamate]
7.33 | CCS(=O)(=O)c1ccc([C@H](COC(=O)N(C)C)NC(=O)c2ccc(N3C[C@@H](Oc4ccc(C(F)(F)F)cc4)C[C@H]3COC(F)F)cc2)cc1 [Example 154, (R)-2-(4-((2S,4S)-2-((difluoromethoxy)methyl)-4-(4-(trifluoromethyl)phenoxy)pyrrolidin-1-yl)benzoylamino)-2-(4-(ethylsulfonyl)phenyl)ethyl dimethylcarbamate]
7.96 | CCS(=O)(=O)c1ccc([C@H](COC(=O)NC)NC(=O)c2ccc(N3C[C@@H](Oc4ccc(OC(F)(F)F)cn4)C[C@H]3COC(F)F)cc2)cc1 [Example 155, (R)-2-(4-((2S,4S)-2-((difluoromethoxy)methyl)-4-((5-(trifluoromethoxy)pyridin-2-yl)oxy)pyrrolidin-1-yl)benzoylamino)-2-(4-(ethylsulfonyl)phenyl)ethyl methylcarbamate]
8.51 | CCS(=O)(=O)c1ccc([C@H](COC(N)=O)NC(=O)c2ccc(N3C[C@@H](Oc4ccc(OC(F)(F)F)cn4)C[C@H]3COC(F)F)cc2)cc1 [Example 156, (R)-2-(4-((2S,4S)-2-((difluoromethoxy)methyl)-4-((5-(trifluoromethoxy)pyridin-2-yl)oxy)pyrrolidin-1-yl)benzoylamino)-2-(4-(ethylsulfonyl)phenyl)ethyl carbamate]
8.16 | CCS(=O)(=O)c1ccc([C@H](CC#N)NC(=O)c2ccc(N3C[C@@H](Oc4ccc(-n5nccn5)cc4)C[C@H]3COC(F)F)cc2)cc1 [Example 157, 4-((2S,4S)-4-(4-(2H-1,2,3-triazol-2-yl)phenoxy)-2-((difluoromethoxy)methyl)pyrrolidin-1-yl)-N—((S)-2-cyano-1-(4-(ethylsulfonyl)phenyl)ethyl)benzamide]
8.13 | CCS(=O)(=O)c1ccc([C@H](CC#N)NC(=O)c2ccc(N3C[C@@H](Oc4ccc(-n5cccn5)cn4)C[C@H]3COC(F)F)cc2)cc1 [Example 158]
7.99 | CCS(=O)(=O)c1ccc([C@H](CC#N)NC(=O)c2ccc(N3C[C@@H](Oc4ccc(-n5cc(C)cn5)cc4)C[C@H]3COC(F)F)cc2)cc1 [Example 159, N—((S)-2-cyano-1-(4-(ethylsulfonyl)phenyl)ethyl)-4-((2S,4S)-2-((difluoromethoxy)methyl)-4-(4-(4-methyl-1H-pyrazol-1-yl)phenoxy)pyrrolidin-1-yl) benzamide]
8.25 | CCS(=O)(=O)c1ccc([C@H](CC#N)NC(=O)c2ccc(N3C[C@@H](Oc4ccc(Cl)cn4)C[C@H]3COC(F)F)cc2)cc1 [Example 160, 4-((2S,4S)-4-((5-chloropyridin-2-yl)oxy)-2-((difluoromethoxy)methyl)pyrrolidin-1-yl)-N—((S)-2-cyano-1-(4-(ethylsulfonyl)phenyl)ethyl)benzamide]
8.00 | CCS(=O)(=O)c1ccc([C@H](CC#N)NC(=O)c2ccc(N3C[C@@H](Oc4ccc(-n5ccc(F)n5)cc4)C[C@H]3COC(F)F)cc2)cc1 [Example 162, N—((S)-2-cyano-1-(4-(ethylsulfonyl)phenyl)ethyl)-4-((2S,4S)-2-((difluoromethoxy)methyl)-4-(4-(3-fluoro-1H-pyrazol-1-yl)phenoxy)pyrrolidin-1-yl)benzamide]
8.29 | CCS(=O)(=O)c1ccc([C@H](CC#N)NC(=O)c2ccc(N3C[C@@H](Oc4ccc(-n5ccc(C)n5)cc4)C[C@H]3COC(F)F)cc2)cc1 [Example 163, N—((S)-2-cyano-1-(4-(ethylsulfonyl)phenyl)ethyl)-4-((2S,4S)-2-((difluoromethoxy)methyl)-4-(4-(3-methyl-1H-pyrazol-1-yl)phenoxy)pyrrolidin-1-yl) benzamide]
8.51 | CCS(=O)(=O)c1ccc([C@H](COC(N)=O)NC(=O)c2cnc(N3C[C@@H](Oc4ccc(Cl)cn4)C[C@H]3COC(F)F)c(F)c2)cc1 [Example 164, (R)-2-(6-((2S,4S)-4-((5-chloropyridin-2-yl)oxy)-2-((difluoromethoxy)methyl)pyrrolidin-1-yl)-5-fluoronicotinamido)-2-(4-(ethylsulfonyl)phenyl)ethyl carbamate]
8.10 | CCS(=O)(=O)c1ccc([C@H](COC(N)=O)NC(=O)c2ccc(N3C[C@@H](Oc4ccc(-n5cccn5)cn4)C[C@H]3COC(F)F)nc2)cc1 [Example 168, (R)-2-(6-((2S,4S)-4-((5-(1H-pyrazol-1-yl)pyridine-2-yl)oxy)-2-((difluoromethoxy)methyl)pyrrolidin-1-yl)nicotinylamino)-2-(4-(ethylsulfonyl)phenyl)ethyl carbamate]
8.05 | CCS(=O)(=O)c1ccc([C@H](COC(N)=O)NC(=O)c2ccc(N3C[C@@H](Oc4ccc(-n5nccn5)cn4)C[C@H]3COC(F)F)cc2)cc1 [Example 170, (R)-2-(4-((2S,4S)-4-((5-(2H-1,2,3-triazol-2-yl)pyridine-2-yl)oxy)-2-((difluoromethoxy)methyl)pyrrolidin-1-yl)benzoylamino)-2-(4-(ethylsulfonyl)phenyl)ethyl carbamate]
7.63 | CCS(=O)(=O)c1ccc([C@H](CC(=O)O)NC(=O)c2ccc(N3C[C@@H](Oc4ccc(-n5cccn5)cn4)C[C@H]3COC(F)F)cc2)cc1 [Example 172, (S)-3-(4-((2S,4S)-4-((5-(1H-pyrazol-1-yl)pyridine-2-yl)oxy)-2-((difluoromethoxy)methyl)pyrrolidin-1-yl)benzamido)-3-(4-(ethylsulfonyl)phenyl)propionic Acid]
8.42 | CCS(=O)(=O)c1ccc([C@H](COC(N)=O)NC(=O)c2ccc(N3C[C@@H](Oc4ccc(-n5nccn5)cn4)C[C@H]3COC(F)F)nc2)cc1 [Example 173, (R)-2-(6-((2S,4S)-4-((5-(2H-1,2,3-triazol-2-yl)pyridine-2-yl)oxy)-2-((difluoromethoxy)methyl)pyrrolidin-1-yl)nicotinylamino)-2-(4-(ethylsulfonyl)phenyl)ethyl carbamate]
